Test results: patent US20220370545A1, “INTEGRIN RECEPTOR ALPHA V BETA 3 AND ITS LIGAND INVOLVED IN CHRONIC ITCH” (North Carolina State University, priority 2019, published 2022)
Values belong to the molecule of their own block, whether it stands above or below them. Ends that are not written are not given here.

Legend:
[1] = system: murine keratinocyte cell line (Balb/MK2); assay: TSLP-induced periostin production in Balb/MK2 keratinocytes (ELISA); type: cell-based, mouse; settings: for TSLP-induced periostin release: pre-exposed 4 hrs to 10 μmol/l inhibitor, then TSLP 10 ng/ml for 24 h
Procedure: The murine keratinocyte cell line (Balb/MK2) was used in this study to determine the periostin production induced by TSLP. Cells were cultured in EMEM medium according to the previously described method (Fukuyama et al., 2018). Confluent cells were exposed to TSLP at 1 or 10 ng/ml in FBS-free medium for 24 hrs. Inhibitory effect of the JAK2 inhibitor, SD 1008 and the STAT3 inhibitor, niclosamide, on TSLP-induced periostin production was also quantified using the murine Balb/MK2 keratinocyte cell line. Confluent cells were pre-exposed for 4 hrs to SD 1008 (10 μmol/l) or niclosamide (10 μmol/l), before being exposed to the TSLP at 10 ng/ml for a further 24 h. After TSLP exposure, periostin levels in cell supernatant were determined by ELISA according to the manufacturer's instructions.

[2] = system: Integrin αvβ3 on DRG Sensory Neurons; assay: Fura-2 calcium imaging of periostin-induced calcium response in cultured DRG sensory neurons; type: cell-based, mouse
Procedure: DRGs were isolated from mice and dissociated in 1 mL of media containing 2.5 U/mL of dispase (Fisher Scientific, Hampton, New Hampshire, United States of America) and 2.5 mg/mL of collagenase (Fisher Scientific, Hampton, New Hampshire, United States of America). After dissociation, the cells were washed with complete media (DMEM (HiMedia Laboratories, Mumbai, India) with 10% FBS (Atlanta Biologicals, Flowery Branch, Georgia, United States of America) and 1% PenStrep (VWR International, Radnor, Pa., United States of America)) and pelleted at 1000 rpm for 15 minutes. Approximately 30 μL of the cell suspension was plated on 18 mm round glass slides with a coating of laminin (Sigma Aldrich, St. Louis, Miss., United States of America) and poly-L-lysine (Sigma Aldrich, St. Louis, Miss., United States of America) and incubated for 1.5 hours. Afterwards, 1 mL of complete media was added, and the cells were incubated overnight. All incubation steps were done at 37° C. with 5% CO2.
(§1) Before imaging, cells were incubated in 350 μL of complete media containing 1 μM Fura-2 AM (Enzo Life Sciences, Farmingdale, New York, United States of America) for 30 min at 37° C. with 5% CO2. During imaging, the cells were perfused with a buffer containing the following: 135 mM sodium chloride, 3.2 mM potassium chloride, 2.5 mM magnesium chloride, 2.8 mM calcium chloride, 667 μM monobasic sodium phosphate, 14.2 mM sodium bicarbonate, and 10.9 mM D-glucose (all from VWR International, Radnor, Pennsylvania, United States of America) with a pH between 7.00 and 7.40. The buffer and the holding plate were kept at 37° C. while imaging. Imaging data was collected on a TE200 inverted microscope using NIS Elements software (Nikon, Melville, New York, United States of America). Cells were exposed to 340 nm and 380 nm wavelengths for 100 ms and the A340/A380 ratio was calculated. Traces were analyzed using Excel and responses greater than 10% of the baseline were counted. Each data point in the scatter plots represented one coverslip.
(§2) Calcium Imaging: Calcium imaging will be performed on the DRG neurons as previously described (Pitake et al., 2018). Briefly, DRG neurons will be incubated for longer than 30 min in DMEM containing 1 μM of a fluorescent indicator Fura-2 AM (Enzo Life Sciences, Inc., Farmingdale, N.Y., United States of America). The neurons will be perfused in a standard bath solution containing 140 mM NaCl, 5 mM KCl, 2 mM MgCl2, 2 mM CaCl2, 10 mM Hepes and 10 mM D-glucose at pH 7.4 adjusted with NaOH. A calcium-free bath solution will be prepared by omitting 2 mM CaCl2 from the standard bath solution […] adding 5 mM EGTA. Fura-2 fluorescence excited at 340 and 380 nm and emission will be monitored at 510 nm with a digital CCD camera (Andor Clara DR-4152, Andor Technology Ltd, Belfast, United Kingdom). Data will be obtained by every 100 ms using an imaging software (NIS-Elements AR 4.13.04, Nikon Corporation, Tokyo, Japan) and analyzed by Microsoft Excel (Microsoft Corporation, Redmond, Wash., United States of America). Values of calcium responses will be normalized by dividing measured values (F) with average values of initial 5 frames (F0) of each cell and described as F/F0. In this study, changes in each response to an application with F/F0>0.1 will be regarded as positive. Cells not responding to 100 mM KCl, which is applied at the end of each experiment, will be regarded as non-neuronal cells and excluded from analysis.
Periostin (10 ug/ml) will be used to evoke calcium influx. This response has been optimized. The peptide inhibitors will be tested on DRG neurons to measure calcium influx in response to periostin. Data on calcium imaging will be presented by presenting each mouse±SEM. The IC50 value of the inhibitor will also be determined
Additional inhibitors were studied using the calcium imaging method described in Example 3. Briefly, the Fura2-AM calcium imaging method was performed on live dorsal root ganglia (DRG) neurons (ex vivo). […]

TRPV1 receptor = target: T1, TRPV1 receptor (Mus musculus, UniProt Q704Y3); assay: Capsaicin-induced calcium response in DRG neurons (specificity control); type: cell-based; settings: capsaicin 1 μM
T1 construct: endogenous in cells; host or cells: primary mouse dorsal root ganglion neurons
T1 sequence (Q704Y3 whole entry): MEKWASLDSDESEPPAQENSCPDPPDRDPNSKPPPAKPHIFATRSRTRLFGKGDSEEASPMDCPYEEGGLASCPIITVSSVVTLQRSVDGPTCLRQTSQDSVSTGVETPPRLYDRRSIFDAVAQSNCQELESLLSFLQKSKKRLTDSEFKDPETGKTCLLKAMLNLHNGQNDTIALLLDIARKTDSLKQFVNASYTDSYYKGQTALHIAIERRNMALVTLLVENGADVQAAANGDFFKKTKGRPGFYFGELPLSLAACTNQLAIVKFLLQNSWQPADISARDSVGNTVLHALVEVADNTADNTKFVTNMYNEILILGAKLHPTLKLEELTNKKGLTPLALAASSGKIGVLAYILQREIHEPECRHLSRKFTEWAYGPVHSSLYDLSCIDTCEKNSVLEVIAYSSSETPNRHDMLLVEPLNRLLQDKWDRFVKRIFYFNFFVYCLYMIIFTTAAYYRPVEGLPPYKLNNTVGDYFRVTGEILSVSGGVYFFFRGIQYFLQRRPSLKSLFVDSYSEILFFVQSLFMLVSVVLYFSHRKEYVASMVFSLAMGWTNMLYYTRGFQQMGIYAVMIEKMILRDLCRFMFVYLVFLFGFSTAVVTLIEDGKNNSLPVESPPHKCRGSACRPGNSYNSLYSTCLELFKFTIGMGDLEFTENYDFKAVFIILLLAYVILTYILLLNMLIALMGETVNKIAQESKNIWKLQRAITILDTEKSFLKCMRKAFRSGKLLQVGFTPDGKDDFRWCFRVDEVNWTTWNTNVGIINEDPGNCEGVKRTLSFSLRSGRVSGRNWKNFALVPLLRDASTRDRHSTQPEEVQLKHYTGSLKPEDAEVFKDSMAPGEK
Procedure: as §1, §2
Additional inhibitors were studied using the calcium imaging method described in Example 3. Briefly, the Fura2-AM calcium imaging method was performed on live dorsal root ganglia (DRG) neurons (ex vivo). The DRG neurons are pre-incubated with the inhibitors P11 (Catalog #4744, Tocris Bioscience, Bristol, United Kingdom) and LM609 (Catalog #MAB1876, Millipore Sigma, Burlington, Mass., United States of America) or vehicle for 10 minutes and further stimulated with periostin or capsaicin in the presence of inhibitors. For Echistatin (Catalog #3202/100U, R&D Biosystems, Minneapolis, Minn., United States of America), MK-0429, and SB273005 (Catalog #S75-40, Selleck Chemicals Llc, Houston, Tex., United States of America), the DRG neurons were perfused with a normal Locke buffer vehicle or modified Locke buffer as described below. The values were normalized with KCl ([…]) to identify neuronal responses in all the calcium response data below.

mouse cornea = assay: Eye wipes assay (corneal application); type: in vivo; settings: wild-type mice, wiping measured for 1 minute
Procedure: All behavioral experiments were conducted during the light cycle at ambient temperature (23° C.). Behavioral assessment of scratching behavior was conducted as described previously (Mishra et al., 2011). Briefly, mice were injected intradermal into the nape of the neck with periostin (R&D), histamine, and chloroquine (all Millipore-Sigma) as previously described (Shimada and LaMotte, 2008). Compounds were diluted in PBS and the same was used as a vehicle. […] Additionally, cilengitide and periostin were combined together (mix) and injected i.d. into the dorsal neck of mouse. Scratching behavior was recorded for 30 minutes and data was presented in bouts per 30 minutes for mice. […] For eye wipes assay, periostin and capsaicin were dropped on mouse cornea and counted wipes for 1-minute. […] For dog's study, periostin (25 μg/25 μl) was injected in the dorsal neck (s.c.) and behavior was recorded and quantified for 30 minutes as “duration of pruritus manifestation” (DPM), as described earlier (Paps et al., 2016). […] When different raters separately scored a single tape, the ratings indicated high interrater reliability (coefficient of correlation, r>0.95). This method of itch readout in NHP has been used and accepted (Ko and Naughton, 2000). The behavior was recorded for 30 minutes duration and number of scratches quantified. […]

[3] = system: NC/Nga mice sensitized with Dermatophagoides farinae HDM; assay: House dust mite (HDM) allergic itch model in NC/Nga mice; type: in vivo, mouse
Procedure: C57BL6 mice (Jackson Labs, Ellsworth, Maine, United States of America) were applied daily with MC903 (4 nmol) and vehicle (97% ethanol) after brief anesthesia. Skin thickness was measured using cutimeter as described (Fukuyama et al., 2015). Scratching behavior was video-monitored for 30 min on Day 1 and Day 7. On Day 7 skin was collected from vehicle and MC903 treated mice for the Western Blot (WB) as described below. NC/Nga mice (Charles River, Yokohama, Japan) were sensitized and challenged with house dust mite (HDM) allergen (Dermatophagoides farina, Greer, Lenoir, N.C., United States of Amercia) as described previously (Fukuyama et al., 2018). In short, for sensitization, 30 μl of HDM in mineral oil (10 mg/ml) was applied topically to the clipped back twice weekly supported by tape stripping until visible lesions had developed. After development of visible lesions mice were treated daily either with vehicle cream or betamethasone dipropionate (0.1% in lipoderm, n=8). […] Scratching behavior was video monitored for 60 min period immediately after HDM on day 42. For periostin measurement, mice were sacrificed for determination of periostin in skin on day 43. A portion of back skin tissue were snap-frozen in liquid nitrogen. Briefly, samples were homogenized under liquid nitrogen, and the homogenates were taken in 200 μL RPMI 1640 medium containing 1 mmol/L Pefabloc. The amount of periostin was determined using ELISA according to the manufacturer's instruction.

[4] = target: integrin αvβ3 on mouse dorsal root ganglia (DRG) sensory neurons (mouse) (UniProt P43406); assay: cell-based or functional assay
integrin αvβ3 on mouse dorsal root ganglia (DRG) sensory neurons (mouse), sequence (P43406 31-1044, chain 1 of 2): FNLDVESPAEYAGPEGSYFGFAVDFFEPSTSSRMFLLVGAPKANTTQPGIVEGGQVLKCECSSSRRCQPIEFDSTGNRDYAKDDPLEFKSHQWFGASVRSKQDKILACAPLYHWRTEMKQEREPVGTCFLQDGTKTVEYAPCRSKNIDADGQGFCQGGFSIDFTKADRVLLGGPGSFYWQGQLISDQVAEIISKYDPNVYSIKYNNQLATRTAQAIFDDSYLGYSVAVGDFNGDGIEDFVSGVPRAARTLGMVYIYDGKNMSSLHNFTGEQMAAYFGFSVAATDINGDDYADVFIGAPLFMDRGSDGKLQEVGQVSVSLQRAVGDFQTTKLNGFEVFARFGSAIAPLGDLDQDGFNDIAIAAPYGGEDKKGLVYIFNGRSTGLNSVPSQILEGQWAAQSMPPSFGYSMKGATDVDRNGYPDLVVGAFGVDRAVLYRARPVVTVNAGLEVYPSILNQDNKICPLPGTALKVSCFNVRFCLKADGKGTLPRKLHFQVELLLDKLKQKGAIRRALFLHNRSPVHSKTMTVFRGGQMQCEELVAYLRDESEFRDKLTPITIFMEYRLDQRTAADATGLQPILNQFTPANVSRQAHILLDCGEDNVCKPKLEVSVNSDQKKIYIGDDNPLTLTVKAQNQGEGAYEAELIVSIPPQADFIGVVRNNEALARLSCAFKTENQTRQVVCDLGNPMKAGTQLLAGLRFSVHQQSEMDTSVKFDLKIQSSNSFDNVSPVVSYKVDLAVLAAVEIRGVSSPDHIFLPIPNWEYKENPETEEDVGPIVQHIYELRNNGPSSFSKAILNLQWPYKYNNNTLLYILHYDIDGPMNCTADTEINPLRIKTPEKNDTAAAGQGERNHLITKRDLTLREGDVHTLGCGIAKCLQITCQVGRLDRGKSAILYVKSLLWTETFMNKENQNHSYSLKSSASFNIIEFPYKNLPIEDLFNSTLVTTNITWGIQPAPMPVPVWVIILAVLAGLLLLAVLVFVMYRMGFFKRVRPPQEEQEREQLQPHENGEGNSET
integrin αvβ3 on mouse dorsal root ganglia (DRG) sensory neurons (mouse), sequence (O54890 26-787, chain 2 of 2, further chain): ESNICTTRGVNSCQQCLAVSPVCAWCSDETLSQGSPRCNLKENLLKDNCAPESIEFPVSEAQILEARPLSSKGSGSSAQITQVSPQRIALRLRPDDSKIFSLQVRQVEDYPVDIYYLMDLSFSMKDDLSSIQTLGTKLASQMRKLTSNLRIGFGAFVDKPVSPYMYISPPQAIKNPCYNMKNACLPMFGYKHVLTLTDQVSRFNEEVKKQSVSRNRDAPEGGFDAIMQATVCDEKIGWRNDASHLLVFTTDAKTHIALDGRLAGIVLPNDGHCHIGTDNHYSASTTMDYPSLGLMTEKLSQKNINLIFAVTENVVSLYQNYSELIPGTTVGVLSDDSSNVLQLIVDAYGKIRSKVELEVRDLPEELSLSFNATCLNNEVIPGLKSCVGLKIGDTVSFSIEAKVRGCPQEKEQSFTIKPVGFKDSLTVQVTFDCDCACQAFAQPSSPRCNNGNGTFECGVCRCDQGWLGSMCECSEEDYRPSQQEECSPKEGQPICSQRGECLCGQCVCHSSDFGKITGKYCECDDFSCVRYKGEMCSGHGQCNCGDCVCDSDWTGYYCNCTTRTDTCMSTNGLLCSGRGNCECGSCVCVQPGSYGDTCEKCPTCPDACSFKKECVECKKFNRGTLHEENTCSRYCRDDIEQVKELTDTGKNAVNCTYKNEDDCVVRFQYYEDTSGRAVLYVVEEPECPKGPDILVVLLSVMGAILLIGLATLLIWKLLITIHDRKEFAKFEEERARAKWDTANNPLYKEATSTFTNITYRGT

Molecule: O=C(Nc1ccc([N+](=O)[O-])cc1Cl)c1cc(Cl)ccc1O [niclosamide]
TSLP-induced periostin release [1]: blocked

capsaicin response (TRPV1 receptor; MK-0429 80 nM or 160 nM): no changes
Molecule: COc1ccc([C@H](CC(=O)O)N2CCN(CCCc3ccc4c(n3)NCCC4)C2=O)cn1 [MK-0429, (S)-3-(6-methoxypyridin-3-yl)-3-(2-oxo-3-(3-(5,6,7,8-tetrahydro-1,8-naphthyridin-2-yl)propyl)-imidazol-idin-1-yl)propanoic acid]
periostin response (calcium influx) ([2]; higher concentration of MK-0429 (160 nM)): significant reduction

Molecule: COc1ccc2c(c1)CC[C@@H]1[C@@H]2CC[C@]2(C)[C@@H](NCCCCCCN3C(=O)C=CC3=O)CC[C@@H]12 [U73122]
periostin-induced calcium response ([2]; phospholipase C inhibitor U73122 1 μM): not affected

Molecule: COc1cc(CNC(=O)CCCC/C=C/C(C)C)ccc1O [capsaicin]
eye-wiping response to ocular application (mouse cornea): robust eye-wipe behavior

capsaicin response (TRPV1 receptor; SB273005 11 nM or 20 nM): No changes
Molecule: CNc1cccc(CCOc2ccc3c(c2)CN(CC(F)(F)F)C(=O)[C@H](CC(=O)O)C3)n1 [SB273005, (S)-2-(8-(2-(6-(methylamino)pyridin-2-yl)ethoxy)-3-oxo-2-(2,2,2-trifluoroethyl)-2,3,4,5-tetrahydro-1H-benzo-[c]azepin-4-yl)acetic acid]
reduction of periostin-induced calcium response ([2]; SB273005 11 nM, trend, not statistically significant): about 40% | periostin-induced calcium response ([2]; SB273005 higher concentration (20 nM)): significant reduction

Molecule: Echistatin
reduction in periostin-induced calcium influx ([2]; Echistatin 4 nM): around 80% | capsaicin response (TRPV1 receptor; in presence of Echistatin): remains unaffected

Molecule: CCC(=O)OCC(=O)[C@@]1(OC(=O)CC)[C@@H](C)C[C@H]2[C@@H]3CCC4=CC(=O)C=C[C@]4(C)[C@@]3(F)[C@@H](O)C[C@@]21C [betamethasone dipropionate]
HDM-induced scratching ([3]; betamethasone dipropionate 0.1% in lipoderm topically, day 42): reduced | periostin skin levels ([3]; betamethasone dipropionate 0.1% in lipoderm topically, skin ELISA day 43): reduced significantly | body weight ([3]; daily betamethasone dipropionate 0.1%, application reduced to every other day on day 26): significant weight loss

Molecule: COC(=O)[C@@H]1[C@H](C(=O)OC)[C@H]2C=CC(=O)[C@@H]1N2Cc1ccccc1 [SD 1008]
TSLP-induced periostin release [1]: blocked

Molecule: His-Ser-Asp-Val-His-Lys-NH2 (HSDVHK-NH2) [P11]
reduction in periostin-induced calcium influx ([2]; P11 50 μg/ml, 10 minutes pre-incubation): about 78% | capsaicin response (TRPV1 receptor; P11 pre-treatment): no change

inward current in SST-positive DRG neurons in response to periostin (10 µg/ml), whole-cell patch clamp [4]: 58.4 pA
Molecule: Recombinant Mouse Periostin (from UniProt Q62009 24-811) (ligand)

Molecule: O=C1OC2(c3ccccc31)c1ccc(O)c(O)c1Oc1c2ccc(O)c1O [gallein]
periostin-induced calcium response ([2]; Gβγ blocker gallein 100 μM): not affected

B1: TSLP: Th2 cytokine thymic stromal lymphopoietin, recombinant mouse (protein, UniProt Q9JIE6 20-140, looked up)
Thymic stromal lymphopoietin: YNFSNCNFTSITKIYCNIIFHDLTGDLKGAKFEQIEDCESKPACLLKIEYYTLNPIPGCPSLPDKTFARRTREALNDHCPGYPETERNDGTQEMAQEVQNICLNQTSQILRLWYSFMQSPE
release of periostin from keratinocytes ([1]; TSLP 1 and 10 ng/ml, 24 hrs): induced the release of periostin
